Drawing on US8093389B2, “Substituted spirochromanone derivatives” (Merck Sharp & Dohme Corp., priority 2007, dated 2012), this text covers inhibition for 18 molecules.

Where a name gives a salt, the structure may show the parent alone.

One assay has as its target human ACC1 (Homo sapiens, UniProt Q13085). Nature of the assay: Acetyl CoA carboxylase (ACC) activity inhibition test, human ACC1. It counts as biochemical. The settings on record: 1 μmol/liter test compound; read-out: Inhibition (%) by 1 μmol/liter Chemical, human ACC1. As to the method:
(§1) A. Pharmacological Test Example (Acetyl CoA Carboxylase (ACC) Activity Inhibition Test)
(§2) A test compound is dissolved in dimethyl sulfoxide (DMSO) to a concentration of 10 mM and then diluted with DMSO to give a 100-fold concentrated solution of the compound compared with target assay concentration. The ACC enzyme activity inhibition test is carried out according to a modification of Thampy & Wakil's method (J. Biol. Chem., Vol. 260, pp. 6318-6323 (1985)). Concretely, 0.8 μl of the diluted test compound is added to each well of 96-well assay plate (Perkin Elmer Opti Plate), then 40 μl of a substrate solution (50 mM Hepes sodium (pH 7.5), 2 mM DTT, 10 mM ATP, 500 μM acetyl CoA, 0.17 mM NaH[^14C]O3 (58 mCi/mmol, by Amersham), 8 mM NaHCO3) is added to each well, and 40 μL of an enzyme solution (1 to 2 nM human ACC1 or human ACC2, 50 mM Hepes sodium (pH 7.5), 2 mM DTT, 40 mM MgCl2, 40 mM tripotassium citrate 1 mg/ml fetal bovine serum albumin) is added thereto. Then, the upper side of the plate is sealed up, and the plate is incubated with gently stirring at 37° C. for 40 minutes. Next, 20 μl of 1 N HCl is added to each well to stop the enzyme reaction, and the assay plate is stirred overnight to remove the unreacted NaH[^14C]O3. Next, 100 μl of a scintillator (Perkin Elmer's Microscinti 40) is added to each well and the plate is stirred, then the radioactivity of the fixed [^14C] is counted using a microplate scintillation counter (Perkin Elmer's Topcount), the radioactivity of which represents the enzyme activity in each well. The human ACC1 and human ACC2 enzyme-inhibition activities of the test compounds are calculated, based on the radioactivity of the well added by DMSO without test compound as a control.

The next assay deals with human ACC2 (Homo sapiens, UniProt O00763). The experiment in a line: Acetyl CoA carboxylase (ACC) activity inhibition test, human ACC2. In kind it is biochemical. As to conditions: 1 μmol/liter test compound; read-out: Inhibition (%) by 1 μmol/liter Chemical, human ACC2. On the procedure: as §1, §2
Sequence of human ACC2 (O00763 whole entry): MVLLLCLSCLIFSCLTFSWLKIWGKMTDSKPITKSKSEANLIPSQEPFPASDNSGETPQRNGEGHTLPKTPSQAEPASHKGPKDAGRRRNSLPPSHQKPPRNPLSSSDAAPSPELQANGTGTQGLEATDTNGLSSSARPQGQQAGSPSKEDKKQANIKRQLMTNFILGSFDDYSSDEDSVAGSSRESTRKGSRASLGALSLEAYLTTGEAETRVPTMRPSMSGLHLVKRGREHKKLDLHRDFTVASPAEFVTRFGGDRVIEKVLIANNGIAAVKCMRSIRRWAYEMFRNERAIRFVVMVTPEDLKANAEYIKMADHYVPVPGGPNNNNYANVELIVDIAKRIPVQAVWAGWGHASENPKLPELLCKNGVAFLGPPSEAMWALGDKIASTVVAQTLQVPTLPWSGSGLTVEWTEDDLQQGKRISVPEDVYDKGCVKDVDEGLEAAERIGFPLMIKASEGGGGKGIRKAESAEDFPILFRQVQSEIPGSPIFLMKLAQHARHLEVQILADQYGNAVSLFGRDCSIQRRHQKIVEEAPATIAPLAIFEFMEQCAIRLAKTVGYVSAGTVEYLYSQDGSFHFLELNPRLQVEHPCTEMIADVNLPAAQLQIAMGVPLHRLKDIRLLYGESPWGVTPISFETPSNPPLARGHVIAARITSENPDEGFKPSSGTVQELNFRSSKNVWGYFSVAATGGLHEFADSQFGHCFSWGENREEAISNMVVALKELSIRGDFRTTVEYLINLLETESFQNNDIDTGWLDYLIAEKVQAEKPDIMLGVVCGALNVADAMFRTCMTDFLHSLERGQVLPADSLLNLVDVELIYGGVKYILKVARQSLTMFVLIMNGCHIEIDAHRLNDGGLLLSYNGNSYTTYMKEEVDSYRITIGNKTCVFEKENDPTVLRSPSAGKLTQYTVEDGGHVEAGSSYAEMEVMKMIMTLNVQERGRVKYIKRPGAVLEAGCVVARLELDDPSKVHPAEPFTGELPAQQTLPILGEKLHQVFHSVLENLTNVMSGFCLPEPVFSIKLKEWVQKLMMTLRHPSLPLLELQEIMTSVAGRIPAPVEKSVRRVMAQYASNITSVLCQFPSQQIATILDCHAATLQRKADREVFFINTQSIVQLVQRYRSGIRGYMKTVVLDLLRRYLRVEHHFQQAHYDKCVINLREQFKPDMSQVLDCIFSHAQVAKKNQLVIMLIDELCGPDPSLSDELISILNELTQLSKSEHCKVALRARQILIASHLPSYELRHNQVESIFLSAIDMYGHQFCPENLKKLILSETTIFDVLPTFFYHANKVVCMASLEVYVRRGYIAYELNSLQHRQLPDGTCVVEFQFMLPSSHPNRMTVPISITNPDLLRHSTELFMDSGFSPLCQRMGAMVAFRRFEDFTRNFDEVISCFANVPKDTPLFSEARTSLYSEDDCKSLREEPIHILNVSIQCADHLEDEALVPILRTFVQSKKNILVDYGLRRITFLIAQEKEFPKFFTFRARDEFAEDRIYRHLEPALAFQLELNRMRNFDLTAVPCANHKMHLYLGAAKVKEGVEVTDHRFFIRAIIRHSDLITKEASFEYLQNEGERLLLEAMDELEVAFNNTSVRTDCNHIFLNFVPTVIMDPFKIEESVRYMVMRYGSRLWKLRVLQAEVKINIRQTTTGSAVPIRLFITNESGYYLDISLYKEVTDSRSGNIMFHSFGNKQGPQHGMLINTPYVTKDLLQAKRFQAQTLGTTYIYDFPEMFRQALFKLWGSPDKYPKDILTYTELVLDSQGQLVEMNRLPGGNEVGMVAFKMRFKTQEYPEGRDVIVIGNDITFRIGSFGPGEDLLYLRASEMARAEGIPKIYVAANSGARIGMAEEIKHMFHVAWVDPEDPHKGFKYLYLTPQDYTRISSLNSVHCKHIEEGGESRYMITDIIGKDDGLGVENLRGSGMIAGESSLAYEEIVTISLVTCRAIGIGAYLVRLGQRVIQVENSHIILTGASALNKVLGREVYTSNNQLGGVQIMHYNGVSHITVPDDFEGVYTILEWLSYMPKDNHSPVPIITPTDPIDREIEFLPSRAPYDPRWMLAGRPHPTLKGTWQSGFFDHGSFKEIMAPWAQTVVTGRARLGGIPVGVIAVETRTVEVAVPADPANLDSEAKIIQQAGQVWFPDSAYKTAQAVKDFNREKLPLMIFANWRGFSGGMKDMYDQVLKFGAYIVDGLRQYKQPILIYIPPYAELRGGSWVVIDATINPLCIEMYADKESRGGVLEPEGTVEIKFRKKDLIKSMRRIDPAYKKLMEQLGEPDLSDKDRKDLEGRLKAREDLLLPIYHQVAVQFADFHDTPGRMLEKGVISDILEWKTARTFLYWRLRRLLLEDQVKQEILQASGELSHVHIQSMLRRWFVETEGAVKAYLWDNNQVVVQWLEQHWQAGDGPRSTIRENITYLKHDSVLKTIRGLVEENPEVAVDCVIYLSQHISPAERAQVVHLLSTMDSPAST

In the case of `CCn1cnc2c(OC)cc(C(=O)N3CCC4(CC3)CC(=O)c3cc(-c5nnn[nH]5)ccc3O4)cc21` [Example 1, 1-[(1-Ethyl-4-methoxy-1H-benzimidazol-6-yl)carbonyl]-6-(1H-tetrazol-5-yl)spiro[chroman-2,4′-piperidine]-4-one], the values for the inhibition at 1 µM at human ACC1 and at human ACC2 were 91% and 89%, respectively.

For `COc1cc(C(=O)N2CCC3(CC2)CC(=O)c2cc(-c4nnn[nH]4)ccc2O3)cn2c(C3CC3)cnc12` [Example 2, 1′-[(3-Cyclopropyl-8-methoxyimidazo[1,2-a]pyridin-6-yl)carbonyl]-6-(1H-tetrazol-5-yl)spiro[chroman-2,4′-piperidin]-4-one], the inhibition at 1 µM at human ACC1 and at human ACC2 was 93% each time.

For the molecule `COc1cc(C(=O)N2CCC3(CC2)CC(=O)c2cc(-c4noc(=O)[nH]4)ccc2O3)cc2c1ccn2C1CC1` [Example 3, 1′-[(1-Cyclopropyl-4-methoxy-1H-indol-6-yl)carbonyl]-6-(5-oxo-4,5-dihydro-1,2,4-oxadiazol-3-yl)spiro[chroman-2,4′-piperidin]-4-one], the inhibition at 1 µM came out at 100% on human ACC1 and 97% at human ACC2.

As to `CCn1ccc2c(OCCO)cc(C(=O)N3CCC4(CC3)CC(=O)c3cc(-c5nnn[nH]5)ccc3O4)cc21` [Example 4, 1′-{[1-Ethyl-4-(2-hydroxyethoxy)-1H-indol-6-yl]carbonyl}-6-(1H-tetrazol-5-yl)spiro[chroman-2,4′-piperidin]-4-one], the inhibition at 1 µM was found to be 96% on human ACC1 and 97% at human ACC2.

With `COc1cc(C(=O)N2CCC3(CC2)CC(=O)c2cc(-c4cccc(C(=O)O)c4)ccc2O3)cc2c1ccn2C1CC1` [Example 5, Sodium 3-{1′-[(1-cyclopropyl-4-methoxy-1H-indol-6-yl)carbonyl]-4-oxospiro[chroman-2,4′-piperidin]-6-yl}benzoate], the inhibition at 1 µM on human ACC1 and at human ACC2 was 99% throughout.

Consider `COc1cc(C(=O)N2CCC3(CC2)CC(=O)c2cc(-c4cncc(C(=O)O)c4)ccc2O3)cc2c1ccn2C1CC1` [Example 7, 5-{1′-[(1-Cyclopropyl-4-methoxy-1H-indol-6-yl)carbonyl]-4-oxospiro[chroman-2,4′-piperidin]-6-yl}nicotinic acid sodium salt], for which the inhibition at 1 µM amounted to 100% at human ACC1 and 99% at human ACC2.

Take `COc1cc(C(=O)N2CCC3(CC2)CC(=O)c2cc(-c4nnn[nH]4)ccc2O3)cc2c1ccn2OC` [Example 8, 1′-{[1,4-Dimethoxy-1H-indol-6-yl]carbonyl}-6-(1H-tetrazol-5-yl)spiro[chroman-2,4′-piperidin]-4-one]: the inhibition at 1 µM at human ACC1 and at human ACC2 was 99% in each case.

On to `CCn1ncc2c(OC)cc(C(=O)N3CCC4(CC3)CC(=O)c3cc(-c5nnn[nH]5)ccc3O4)cc21` [Example 10, 1′-[(1-Ethyl-4-methoxy-1H-indazol-6-yl)carbonyl]-6-(1H-tetrazol-5-yl)spiro[chroman-2,4′-piperidin]-4-one], for which the inhibition at 1 µM worked out at 93% on human ACC1 and 96% on human ACC2.

Consider `COc1cc(C(=O)N2CCC3(CC2)CC(=O)c2cc(-c4nnn[nH]4)ccc2O3)cc2c1ccn2C1CC1` [Example 11, 1′-[(1-Cyclopropyl-4-methoxy-1H-indol-6-yl)carbonyl]-6-(1H-tetrazol-5-yl)spiro[chroman-2,4′-piperidin]-4-one], for which the inhibition at 1 µM on human ACC1 was determined as 99%; at human ACC2 it was 98%.

Consider `CCOc1cc(C(=O)N2CCC3(CC2)CC(=O)c2cc(-c4nnn[nH]4)ccc2O3)cc2c1ccn2C1CC1` [Example 13, 1′-[(1-Cyclopropyl-4-ethoxy-1H-indol-6-yl)carbonyl]-6-(1H-tetrazol-5-yl)spiro[chroman-2,4′-piperidin]-4-one], for which the results for the inhibition at 1 µM on human ACC1 and at human ACC2 were 100% and 99%, respectively.

Turning to `CCOc1cc(C(=O)N2CCC3(CC2)CC(=O)c2cc(-c4nnn[nH]4)ccc2O3)cc2c1c(C)cn2C1CC1` [Example 17, 1′-[(1-Cyclopropyl-4-ethoxy-3-methyl-1H-indol-6-yl)carbonyl]-6-(1H-tetrazol-5-yl)spiro[chroman-2,4′-piperidin]-4-one], the results for the inhibition at 1 µM on human ACC1 and on human ACC2 were 98% and 99%, respectively.

For `COc1cc(C(=O)N2CCC3(CC2)CC(=O)c2cc(-c4cncc(C(=O)O)c4)ccc2O3)cc2c1c(C)cn2C1CC1` [Example 23, 5-{1′-[(1-Cyclopropyl-4-methoxy-3-methyl-1H-indol-6-yl)carbonyl]-4-oxo-spiro[chroman-2,4′-piperidin]-6-yl}nicotinic acid sodium salt], the values for the inhibition at 1 µM at human ACC1 and at human ACC2 were 99% and 98%, respectively.

Turning to `COc1cc(C(=O)N2CCC3(CC2)CC(=O)c2cc(-c4cncc(C(=O)O)c4)ccc2O3)cc2c1c(Cl)cn2C1CC1` [Example 24, 5-{1′-[(3-Chloro-1-cyclopropyl-4-methoxy-1H-indol-6-yl)carbonyl]-4-oxo-spiro[chroman-2,4′-piperidin]-6-yl}nicotinic acid sodium salt], the inhibition at 1 µM at human ACC1 was 99%; at human ACC2, 100%.

For the molecule `CCOc1cc(C(=O)N2CCC3(CC2)CC(=O)c2cc(-c4nnn[nH]4)ccc2O3)cc2c(C3CC3)noc12` [Example 31, 1′-[(3-cyclopropyl-7-ethoxy-1,2-benzisoxazol-5-yl)carbonyl]-6-(1H-tetrazol-5-yl)spiro[chroman-2,4′-piperidin]-4-one], the inhibition at 1 µM is 97% on human ACC1 and 98% at human ACC2.

Consider `O=C1CC2(CCN(C(=O)c3cc(OCCO)c4ccn(C5CC5)c4c3)CC2)Oc2ccc(-c3nnn[nH]3)cc21` [Example 36], for which the inhibition at 1 µM at human ACC1 and at human ACC2 was 99% throughout.

With `CCOc1cc(C(=O)N2CCC3(CC2)CC(=O)c2cc(-c4cncc(C(=O)O)c4)ccc2O3)cc2c1c(C)cn2C1CC1` [Example 45, 5-{1′-[(1-cyclopropyl-4-ethoxy-3-methyl-1H-indol-6-yl)carbonyl]-4-oxospiro[chroman-2,4′-piperidin]-6-yl}nicotinic acid], the inhibition at 1 µM at human ACC1 and at human ACC2 was 100% each time.

In the case of `CCn1ccc2c(OC)cc(C(=O)N3CCC4(CC3)CC(=O)c3cc(-c5nnn[nH]5)ccc3O4)cc21` [Example 56, 1′-[(1-ethyl-4-methoxy-1H-indol-6-yl)carbonyl]-6-(1H-tetrazol-5-yl)spiro[chroman-2,4′-piperidin]-4-one], the inhibition at 1 µM at human ACC1 and at human ACC2 was 99% each time.

Regarding `COc1cc(C(=O)N2CCC3(CC2)CC(=O)c2cc(-c4nnc(C(N)=O)[nH]4)ccc2O3)cc2c1ccn2C1CC1` [Example 57, 5-{1′-[(1-cyclopropyl-4-methoxy-1H-indol-6-yl)carbonyl]-4-oxo-spiro[chroman-2,4′-piperidin]-6-yl}-4H-1,2,4-triazole-3-carboxamide], the inhibition at 1 µM at human ACC1 and on human ACC2 was 99% each time.
